Test systems include 786-0; A549; BT-549; DU-145; HCC 2998; KM12; LOX IMVI; M14; MCF7; MOLT-4; NCI-H522; OVCAR-5; SF-295; SF-539; SK-MEL-28; SNB-75; SW-620; UACC-257; UACC-62; UO-31.
Assay in all cases: DTP human tumour cell line panel, 48 h

The structures appear in SMILES notation.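 1) Cells in 96-well plates. 2) Compound, 48 h, 5 concentrations. 3) Linear interpolation between surrounding doses. 4) Unreached endpoint = highest concentration. The concentration for 50% growth inhibition is given as GI50.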 Activity calls are given as the source filed them. No stated cut-off is given here; in the data, active = GI50 up to about 1.1 µM and inactive = higher. Where only a bound is given, the exact number is not on record here.

For `COc1cc(/C=C2\C[C@H]3[C@@H]4CC=C5C[C@@H](O)CC[C@]5(C)[C@H]4CC[C@]3(C)C2=O)cc(OC)c1OC`, the GI50 in the assay on 786-0 is 26.6 µM (inactive); in the assay with A549, 13.2 µM (inactive); in the assay with BT-549, 33.4 µM (inactive); in the assay with DU-145 it was 39.1 µM (inactive); in the assay on HCC 2998, 27.6 µM (inactive); in the assay on KM12, 27.2 µM (inactive). The GI50 in the assay on LOX IMVI was 22 µM (inactive); in the assay with M14 it was 24.4 µM (inactive); with MCF7, 20.8 µM (inactive); with MOLT-4 it was 16.3 µM (inactive); in the assay on NCI-H522, 16.9 µM (inactive); with OVCAR-5 it was 39.6 µM (inactive). Besides, the GI50 in the assay on SF-295 was 19 µM (inactive); with SF-539, 49 µM (inactive); in the assay on SK-MEL-28 it was 45.7 µM (inactive); with SNB-75, 30.6 µM (inactive); in the assay with SW-620, 39.6 µM (inactive); with UACC-257, 29.2 µM (inactive). The GI50 was 37.1 µM (inactive) in the assay with UACC-62 and 17.5 µM (inactive) in the assay with UO-31.
Regarding `O=[N+]([O-])c1cc(/C=N/C23CC4CC(CC(C4)C2)C3)ccc1Cl`, the GI50 in the assay on 786-0 is 19.8 µM (inactive); in the assay with A549, > 100 µM (inactive); with BT-549 it was 21 µM (inactive); with DU-145, 27.8 µM (inactive); in the assay on HCC 2998, 30.5 µM (inactive); in the assay with KM12 it was 17.1 µM (inactive). In addition, the GI50 in the assay with LOX IMVI is 19 µM (inactive); in the assay on M14, 12.3 µM (inactive); in the assay on MCF7, 9.02 µM (inactive); with MOLT-4, 8.73 µM (inactive); in the assay on NCI-H522 it was 13.4 µM (inactive); with OVCAR-5 it was 34 µM (inactive). The GI50 is 37.9 µM (inactive) in the assay on SF-295; 22.9 µM (inactive) in the assay on SF-539; 18.1 µM (inactive) in the assay on SK-MEL-28; 36.2 µM (inactive) in the assay on SNB-75; 13 µM (inactive) in the assay with SW-620; 20.7 µM (inactive) with UACC-257. The GI50 in the assay on UACC-62 was 14.3 µM (inactive); in the assay with UO-31 it was 7.52 µM (inactive).
Regarding `C#C[C@]1(O)CC[C@H]2[C@@H]3CCC4=C/C(=N/OC(=O)c5cccc6c(=O)c7ccccc7[nH]c56)CC[C@@H]4[C@H]3CC[C@@]21C`, the GI50 is > 100 µM (inactive) with 786-0; 64.3 µM (inactive) with A549; 37.2 µM (inactive) with BT-549; 61.9 µM (inactive) in the assay with DU-145; 50.5 µM (inactive) with HCC 2998; 34.8 µM (inactive) in the assay on KM12. Besides, the GI50 was 34 µM (inactive) in the assay with LOX IMVI; 56.5 µM (inactive) in the assay on M14; 42.5 µM (inactive) in the assay with MCF7; 16.2 µM (inactive) in the assay on MOLT-4; 18.2 µM (inactive) with NCI-H522; > 100 µM (inactive) in the assay with OVCAR-5. The GI50 in the assay with SF-295 was 92 µM (inactive); with SF-539, 29.5 µM (inactive); in the assay with SK-MEL-28, 62.4 µM (inactive); with SNB-75, 97.7 µM (inactive); in the assay on SW-620, 56.2 µM (inactive); with UACC-257, 37.2 µM (inactive). Further, the GI50 is 35.6 µM (inactive) with UACC-62 and 53.5 µM (inactive) in the assay with UO-31.
On to `Nc1c2c(nc3ccccc13)CCCc1ccccc1-2`, for which the GI50 in the assay with 786-0 was 11.3 µM (inactive); in the assay on A549, 16.3 µM (inactive); in the assay on BT-549, 28.8 µM (inactive); with DU-145 it was 21.5 µM (inactive); with HCC 2998, 1.83 µM (inactive); in the assay with KM12, 13.1 µM (inactive). The GI50 with LOX IMVI is 8.69 µM (inactive); in the assay with M14, 7.91 µM (inactive); with MCF7 it was 13.1 µM (inactive); with MOLT-4 it was 16.6 µM (inactive); in the assay on NCI-H522, 17.3 µM (inactive); in the assay with OVCAR-5, 12.4 µM (inactive). Moreover, the GI50 with SF-295 is 7.23 µM (inactive); in the assay on SF-539, 8.83 µM (inactive); in the assay with SK-MEL-28, 9.75 µM (inactive); in the assay with SNB-75 it was 13.5 µM (inactive); in the assay with SW-620, 5.94 µM (inactive); in the assay on UACC-257, 12.7 µM (inactive). Moreover, the GI50 with UACC-62 is 6.7 µM (inactive); in the assay on UO-31, 10.5 µM (inactive).
For the compound `C=CCNC(=S)N/N=C1\C(=O)N(CN2CCOCC2)c2ccc([N+](=O)[O-])cc21`, the GI50 with 786-0 was 15.6 µM (inactive); with A549 it was 10.4 µM (inactive); in the assay on BT-549, 15.1 µM (inactive); with DU-145, 18.7 µM (inactive); in the assay on HCC 2998, 12.9 µM (inactive); in the assay on KM12, 28.3 µM (inactive). The GI50 in the assay with LOX IMVI was 32.3 µM (inactive); in the assay on M14, 17.2 µM (inactive); in the assay on MCF7, 33.3 µM (inactive); with MOLT-4 it was 5.98 µM (inactive); in the assay on NCI-H522, 41.4 µM (inactive); in the assay with OVCAR-5, 56.2 µM (inactive). The GI50 in the assay on SF-295 was 7.98 µM (inactive); with SF-539, 51.6 µM (inactive); in the assay on SK-MEL-28, > 100 µM (inactive); in the assay with SNB-75, 24.3 µM (inactive); in the assay on SW-620 it was 61.5 µM (inactive); in the assay on UACC-257, 16.6 µM (inactive). For the same compound, the GI50 in the assay with UACC-62 is > 100 µM (inactive); in the assay with UO-31, 6.18 µM (inactive).
Turning to `CC1=C(C)C(=O)C(C2=C(C3=CC(=O)C(C)=C(C)C3=O)C(=O)c3ccccc3C2=O)=CC1=O`, the GI50 in the assay with 786-0 is 1.88 µM (inactive); in the assay on A549 it was 5.21 µM (inactive); in the assay with BT-549 it was 2.57 µM (inactive); in the assay with DU-145 it was 2.95 µM (inactive); in the assay with HCC 2998, 4.66 µM (inactive); in the assay on KM12, 3.33 µM (inactive). In addition, the GI50 in the assay with LOX IMVI was 2.41 µM (inactive); with M14, 1.82 µM (inactive); with MCF7, 1.71 µM (inactive); with MOLT-4, 1.41 µM (inactive); with NCI-H522, 1.88 µM (inactive); in the assay with OVCAR-5 it was 13 µM (inactive). Further, the GI50 in the assay with SF-295 was 12.1 µM (inactive); with SF-539, 2.36 µM (inactive); in the assay with SK-MEL-28, 2.3 µM (inactive); in the assay on SNB-75, 9.79 µM (inactive); in the assay with SW-620, 1.82 µM (inactive); in the assay with UACC-257, 1.99 µM (inactive). In addition, the GI50 with UACC-62 is 2.51 µM (inactive); with UO-31, 1.93 µM (inactive).
Consider `N=C1OC(c2c[nH]c3ccc(OCc4ccccc4)cc23)C(O)=C1O` (stereo not given), for which the GI50 was > 100 µM (inactive) in the assay on 786-0; > 100 µM (inactive) with A549; > 100 µM (inactive) in the assay on BT-549; > 100 µM (inactive) in the assay with DU-145; 0.951 µM (active) with HCC 2998; > 100 µM (inactive) in the assay with KM12. Besides, the GI50 in the assay on LOX IMVI, in the assay on M14, in the assay on MCF7, in the assay on MOLT-4, in the assay on NCI-H522 and in the assay with OVCAR-5 was > 100 µM (inactive) in each case. The GI50 was > 100 µM (inactive) in the assay on SF-295; > 100 µM (inactive) in the assay on SF-539; > 100 µM (inactive) with SK-MEL-28; 29.2 µM (inactive) with SNB-75; > 100 µM (inactive) with SW-620; > 100 µM (inactive) with UACC-257. The GI50 in the assay with UACC-62 and with UO-31 was > 100 µM (inactive) each time.
Consider `NN`, for which the GI50 with 786-0 was 204 µM (inactive); in the assay with A549, 145 µM (inactive); with BT-549 it was 1080 µM (inactive); in the assay on DU-145, 793 µM (inactive); in the assay on HCC 2998, 1040 µM (inactive); in the assay with KM12, 480 µM (inactive). In addition, the GI50 is 86.3 µM (inactive) in the assay on LOX IMVI; 468 µM (inactive) with M14; 179 µM (inactive) in the assay with MCF7; 193 µM (inactive) in the assay on MOLT-4; 335 µM (inactive) in the assay on NCI-H522; 514 µM (inactive) in the assay with OVCAR-5. In addition, the GI50 is 574 µM (inactive) in the assay with SF-295; 582 µM (inactive) with SF-539; 585 µM (inactive) with SK-MEL-28; 851 µM (inactive) in the assay with SNB-75; 235 µM (inactive) in the assay with SW-620; 851 µM (inactive) with UACC-257. The values for the GI50 with UACC-62 and with UO-31 were 358 µM (inactive) and 434 µM (inactive), respectively.
Take `CC(=O)OCC1OC(N2C(C)=C(C(C)=O)C(c3ccco3)C(C#N)=C2S)C(OC(C)=O)C(OC(C)=O)C1OC(C)=O` (stereo not given): the GI50 in the assay on 786-0, in the assay with A549, in the assay on BT-549, in the assay on DU-145, in the assay with HCC 2998 and with KM12 was > 100 µM (inactive) in each case. Besides, the GI50 in the assay on LOX IMVI, in the assay on M14, in the assay with MCF7, in the assay with MOLT-4, with NCI-H522 and in the assay with OVCAR-5 was > 100 µM (inactive) each time. The GI50 with SF-295, with SF-539, with SK-MEL-28, in the assay with SNB-75, in the assay with SW-620 and in the assay on UACC-257 was > 100 µM (inactive) in each case. In addition, the GI50 in the assay on UACC-62 was > 100 µM (inactive); in the assay on UO-31, 81.1 µM (inactive).
With `COC(=O)C1Cc2ccc(O)c(O)c2CN1` (stereo not given), the GI50 with 786-0 is 17.5 µM (inactive); with A549, > 100 µM (inactive); in the assay with BT-549, 18.3 µM (inactive); in the assay with DU-145, 30.7 µM (inactive); in the assay on HCC 2998 it was > 100 µM (inactive); in the assay on KM12, 69.3 µM (inactive). Also, the GI50 is 14.8 µM (inactive) in the assay on LOX IMVI; 16.2 µM (inactive) with M14; 17.1 µM (inactive) with MCF7; 25.1 µM (inactive) in the assay with MOLT-4; > 100 µM (inactive) with NCI-H522; 27.5 µM (inactive) with OVCAR-5. Also, the GI50 in the assay on SF-295 was 7.41 µM (inactive); with SF-539, 18.4 µM (inactive); with SK-MEL-28, 17.3 µM (inactive); in the assay with SNB-75, 19.5 µM (inactive); in the assay on SW-620 it was 21.3 µM (inactive); with UACC-257 it was 15.5 µM (inactive). For the same compound, the GI50 in the assay on UACC-62 is 19.7 µM (inactive); in the assay with UO-31, 22.5 µM (inactive).

One may read the GI50 as the concentration at which growth is held to half of that of the control.

The values are drawn from ChEMBL document CHEMBL1201862, “PubChem BioAssay data set” (2004).
